Here are results for 5 sequences from patent US20230143215A1 (priority 2020, published 2023).

Assay type in all cases: cell-based, human
In assay [1] the test system is autologous T cells of healthy donors. On the set-up: key: +: positive response.
The test system is the same in assay [2]. On the set-up: key: +: positive response. The source holds these as a separate data set.
For assay [3] the test system is unchanged. On the set-up: key: +: positive response. The source holds these as a separate data set.
Assay [4] has the same test system. On the set-up: key: +: positive response. This is another data set of the same source.
Assay [5] deals with PBMC from SARS-CoV-2 convalescent donors.

Take GNGGDAALALLLLDRLNQLESKMSGKGQ [SLP 39]: in assay [1], the ELISpot result is “+”. In assay [2], the ELISA entry is “+”. Besides, the Proliferation result in assay [3] is “+”. Moreover, in assay [4], the “positive response detected on one time point with two different assays” value was “+” and the “positive response detected on two time points with the same assay” value is on record as “+”.
Take IRQGTDYKHWPQIAQFAPSASAFFG [SLP 46]: in assay [5], the “IFNγ ELISpot response” value is “high responses” and the “immunogenicity compared to the other SLPs” value is “remarkably immunogenic”.
In the case of ALNTLVKQLSSNFGAISSVLNDILSRLDKV [SLP 9], the ELISpot result in assay [1] is on record as “+”. Further, the ELISA entry in assay [2] is “+”. The Proliferation result in assay [3] is recorded as “+”. In addition, the “positive response detected on one time point with two different assays” value in assay [4] is reported as “+”.
With LFARTRSMWSFNPETNILLNV [SLP 19], the ELISA result in assay [2] was “+”. Moreover, the Proliferation entry in assay [3] is “+”. In assay [4], the “positive response detected on one time point with two different assays” value is “+” and the “positive response detected on two time points with the same assay” value was “+”. In assay [5], the “IFNγ ELISpot response” value is given as “high responses”.
As to “PLVDLPIGINITRFQTLLALHRSYLTPGDSSSG [SLP 32]”, the ELISA result in assay [2] is “+”. Further, the Proliferation result in assay [3] is given as “+”. Further, the “positive response detected on two time points with the same assay” value in assay [4] is recorded as “+”.
